Earlier results, collected in patent US20230404934A1, “ON DEMAND AND LONG-TERM DRUG DELIVERY FROM DEGRADABLE NANOCAPSULES” (University of Maryland, Baltimore County, priority 2020, published 2023).

Settings: topical to the eye

Cc1ccc(=O)n(-c2ccccc2)c1 [pirfenidone, 5-methyl-1-phenylpyridin-2-one]
amount in the back of the eye after topical administration: no measurable amounts in the back of the eye | washout from the eye after topical administration: washes out very quickly, within minutes
